Values of other authors as cited in patent US10786531B2, “Mineral salt-sulfonic acid compositions and methods of use” (BMG PHARMA SPA, priority 2009, dated 2020).
Where two headings read alike, the source gives them in different places.

Key:
[1] = solutions of 0.2-1%

Row | Molecule | dermal irritancy (dermal abrasion; 1% aqueous) | dermal irritancy (dermal abrasion; 20% suspension) | further results
1 | [Cl-].[Cl-].[Zn+2] [zinc chloride] | severe irritant | – | –
2 | zinc pyrithione | – | not overtly irritant | –
3 | CC(=O)[O-].CC(=O)[O-].[Zn+2] [zinc acetate] | – | – | dermal irritancy (dermal abrasion; 20% aqueous): slightly less irritant
4 | [O]=[Zn] [zinc oxide] | – | not overtly irritant | –
5 | O=S(=O)([O-])[O-].[Zn+2] [zinc sulfate] | not overtly irritant | – | irritation when applied circumorally [1]: severe irritation
